Laboratory results taken from US20150224094A1, “ADMINISTRATION OF ACETYLCHOLINESTERASE INHIBITORS TO MITIGATE NEUROTOXIN-INDUCED PARALYSIS AND RESIDUAL NEUROMUSCULAR BLOCKADE” (priority 2012, published 2015).
“And” between values parts separate entries of the source, which are not always exact repeats. Equal entries are not always repeated. “Also recorded” adds a separate entry of the source.

Key:
[1] = Intra-nasal administration of glycopyrrolate and neostigmine, tolerability in a healthy volunteer
Procedure: In this experiment, the effect of intra-nasal administration of an mAChR inhibitor (glycopyrrolate) was determined using a healthy volunteer. 5 cc of glycopyrrolate (0.2 mg/mL) in sterile water was instilled in one nostril using an LMA sponge atomizer. […] 5 cc of 0.2 mg/mL glycopyrrolate mixed in DMSO was instilled in the other nostril.

[2] = system: mivacurium-induced neuromuscular blockade; experiment: Reversal of experimental mivacurium paralysis in a human by intranasal neostigmine aerosol
Procedure: Intravenous mivacurium is administered to a subject at concentrations of 5-200 mcg/kg/min to induce a safe, stable, low level neuromuscular block for a medical procedure. After completion of the procedure a total of 4 to 30 mg of neostigmine in divided doses—each dose separated by 15 minutes ([…] a 5% or a 6% solution) is administered intra-nasally and the regression of the block is followed quantitatively using acceleromyography or clinical measures such as the improvement in muscle strength as measured by thumb adduction, handgrip strength, teeth clenching, head raising and/or swallowing.
Neuromuscular block was quantified by using the train-of-four (TOF) ratio at the left adductor pollicis (AP) muscle measured by acceleromyography and as described previously. When the subject had significant oropharyngeal weakness and met electrophysiological criteria for Level 3 block a single dose of […] IV glycopyrrolate was administered to prevent bradycardia. Five minutes later 6% neostigmine dissolved in sterile water was administered using a primed atomizer (LMA MAD Nasal Device, LMA Corporation North America, San Diego, Calif.). A total dose of 27.6 mg, 0.37 mg/kg with half the volume insufflated in each nostril was given and the subject was left undisturbed for a total period of 10 min (Shaded area, FIG. 2) except for acceleromyographic recording. After the final set of measurements, the mivacurium infusion was terminated and neuromuscular function was allowed to return spontaneously. Emergency equipment and drugs including IV neostigmine and edrophonium (for reversal of mivacurium block) and glycopyrrolate and atropine (for early treatment of neostigmine toxicity) were at the bedside at all times.
Clinical measures of muscle function emphasized those that would be seen in the setting of neurotoxic envenomation that could be readily measured in out-of-hospital settings. The clinical assessments of muscle function were as follows: visual acuity, ease of swallowing, ability to protrude the tongue, diction, and ability to raise the head completely off the bed for more than 5 sec (neck flexion) with a postal scale (WeighMax, Industrial City, Calif., USA) placed under the subjects head to confirm complete elevation and peak respiratory flow measured using a Tru-Zone Peak Flow Meter (Monaghan, Plattsburg, N.Y.). […] The subject was blinded to all clinical and acceleromyographic data as well as to the mivacurium infusion rate and the levels of neuromuscular blockade.
The mivacurium infusion was maintained with unchanged infusion rate, enabling the investigators to determine the characteristics of neostigmine effect. Analysis of TOF ratios were made using TOFMON software (Schering-Plough Corporation, Kenilworth, N.J.) and considered stable if the values obtained 10 min apart differed less than 5% and accounting for repeated measures. Student's t-test results were calculated and reported as average values, standard deviation (SD), and 95% confidence intervals (95% CI).

[3] = system: Naja naja (Indian cobra) venom; experiment: Intranasal neostigmine in experimental Naja naja envenomation in mice; assay type: in vivo
Procedure: After pilot studies to assess the potency of reconstituted N. naja venom, 20 mice (21-28 g) were pseudo-randomized to receive IP injections of N. naja venom (approximately 2.5×LD50 for mice, Total N=20).
After 10 minutes, 15 animals received 5 microliters of 0.5 mg/mL neostigmine by nasal administration. Animals were observed continuously for 12 hours and assessed for signs of toxicity including respiratory distress, loss of spontaneous locomotor activity with the endpoint being death. Surviving animals were euthanized after 12 hours. Comparison of time to euthanasia across groups was performed and represented in Kaplan-Meier curves
Swiss albino mice were envenomed with cobra toxin (Naja naja) by intraperitoneal injection at doses >2.5×the LD50 and that killed 100% of untreated mice “LD100”. Intranasal neostigmine was given 10 minutes after envenomation to determine if this intervention could delay or treat the envenomation. 10/15 mice recovered completely and were still behaving normally >12 hours after envenoming. 5/15 mice in the treatment group died compared to 5/5 (100%) of the envenomation group. Mice were treated only once, with no attempt to re-treat with intranasal neostigmine.

[4] = system: krait bite (Bungarus sp.); experiment: Case report: intranasal neostigmine aerosol for residual weakness after suspected krait bite; assay type: in vivo, human; conditions: single dose 0.5 cc aqueous 5% neostigmine intranasal aerosol
Source text: A healthy person was sleeping on a mud platform in their village and was awakened by a snake biting their left forearm. Within minutes, they developed headache and throat discomfort. They were transported by their family from the local clinic to the Emergency Department, conscious, but with progressive weakness. On physical examination, they had complete loss of gag reflex and rapidly worsening shortness of breath. There was no fang mark, ecchymosis or local swelling, and there were no other signs of coagulopathy such as bleeding gums or hematuria. They were unable to open their eyes and became unresponsive as emergent intubation was being performed without sedation. Polyvalent anti-snake venom (ASV) was administered concurrently. Based on the pattern of symptoms, lack of coagulopathy, normal renal function and normal bleeding and clotting times as well as lack of physical evidence of snakebite, krait bite (Bungarus sp.) was suspected. Twenty-four hours after ASV therapy and continuous mechanical ventilation, they were awake and alert, but with residual weakness, including profound ptosis, bilateral 6th nerve palsies and inability to lift their neck. […] Intranasal neostigmine was administered every four hours thereafter with IV atropine as prophylaxis against cholinergic toxicity. […]

[5] = system: myasthenic patients; conditions: cited from earlier work
[6] = 3 cc of 1 mg/mL neostigmine into one nostril, after 2nd dose of glycopyrrolate
[7] = intranasal neostigmine, constant mivacurium infusion

Compound: C[N+]1(C)CCC(OC(=O)C(O)(c2ccccc2)C2CCCC2)C1 (stereo not shown) [glycopyrrolate]
- effect on heart rate ([1]; 5 cc glycopyrrolate 0.2 mg/mL in sterile water, one nostril, LMA sponge atomizer): no effect
- effect on heart rate ([1]; 5 cc of 0.2 mg/mL glycopyrrolate mixed in DMSO, other nostril): no notable effect
- effect on nasal membranes ([1]; intranasal glycopyrrolate, noted prior to neostigmine): mild drying
- reversal of neostigmine-associated bradycardia ([2]; IV glycopyrrolate): easily reversed

Compound: CN(C)C(=O)Oc1cccc([N+](C)(C)C)c1 [neostigmine]
- effect on heart rate [1, 6]: no effect
- salivation [1, 6]: no increase
- local tolerability of intranasal spray ([2]; 6% neostigmine by atomizer): no stinging sensation or irritation
- Normalized TOF ratios (mean ± SD), adductor pollicis ([2]; after intranasal 6% neostigmine 27.6 mg (0.37 mg/kg), constant mivacurium infusion 2.5 mcg/kg/min, pre-neostigmine 0.56): 0.64±0.03
- Peak flow of baseline by the termination of the mivacurium infusion ([2]; after intranasal neostigmine, 135 min): 95%
- peak improvement adductor pollicis TOF ratio ([2]; after intranasal neostigmine, constant mivacurium infusion): 0.70
- time to feeling of facial and lingual muscles rearranging and tightening ([2]; after receiving intranasal neostigmine): ≤ 5 min
- time to full recovery of neck flexion ([2]; first test of neck flexion following neostigmine administration): 5 min
- clinically important muscular deficits / neuromuscular blockade [2, 7]: quickly relieved all clinically important muscular deficits; also recorded: antagonized the neuromuscular blockade
- time to full recovery of ability to swallow after neostigmine administration [2, 7]: ≤ 10 min
- bradycardia and concurrent symptoms ([2]; just prior to stopping the mivacurium infusion and after): asymptomatic bradycardia
- Peak Flow, average after neostigmine, of baseline ([2]; response to intranasal neostigmine, 72% under stable blockade): 91%
- Visual Acuity ([2]; response to intranasal neostigmine, >20/200 under stable blockade): Steady improvement and 20/20
- Ease of Swallowing ([2]; response to intranasal neostigmine, Difficult under stable blockade): Easy
- Tongue Protrusion ([2]; response to intranasal neostigmine, Moderately Difficult under stable blockade): Easy
- Diction ([2]; response to intranasal neostigmine, Poor under stable blockade): Improved
- Jaw Ptosis ([2]; response to intranasal neostigmine, Present under stable blockade): None
- Neck Flexion (Head Raise >5 s) ([2]; response to intranasal neostigmine, Unable under stable blockade): Easy
- signs or symptoms of muscarinic-mediated toxicity ([2]; while the mivacurium infusion was running): no signs or symptoms
- mice whose lives were prolonged or saved ([3]; 5 uL of 0.5 mg/mL IN neostigmine, 2.5× the 100% lethal dose (LD100) of Naja naja venom): 5/5
- effect on survival time ([3]; 5 uL of 0.5 mg/mL IN neostigmine, of Naja naja): trended toward prolonging the lives
- time to death or euthanasia ([3]; IN neostigmine N=15, controls 193 minutes): 553 min
- condition of surviving animals ([3]; IN neostigmine after N. naja venom): completely normal by 6 hours
- mice that died in the treatment group ([3]; IN neostigmine, 5/5 died in envenomation group): 5/15
- animals surviving / recovered of treated ([3]; single dose 5 uL of 0.5 mg/mL IN neostigmine 10 min after IP N. naja venom (approx. 2.5×LD50, 100% lethal in controls), 12 h observation): 10 of 15 and 10/15
- survival ([3]; single dose IN neostigmine 10 min after IP N. naja venom, N=15): 67%
- 6th nerve palsies [4]: almost complete recovery
- time to complete resolution of ptosis ([4]; 24 h after ASV): ≤ 30 min
- clinical effect in myasthenic patients ([5]; 6% neostigmine methylsulfate intranasal, doses spaced by 15 minutes, alternating nostrils): salutary effects usually after the first dose
- puffs tolerated without ill effect ([5]; intranasal neostigmine at 15 minute intervals): up to 5 puffs
